The record followed here is article PMC10343472, “Cyclopentenylcytosine (CPE-C): In Vitro and In Vivo Evaluation as an Antiviral against Adenoviral Ocular Infections” (Molecules, 2023).

Where two headings read alike, the source gives them in different places.

One assay relates to HAdV1. The experiment in a line: plaque reduction assay in A549 cells, HAdV1. The assay is classed as cell-based. As to conditions: Human adenovirus sp. The procedure: (§1) The in vitro antiviral testing was done using a standard plaque reduction assay with A549 human lung carcinoma cells as previously described. The EC50s were determined using a Fitted Line Plot Regression analysis with Minitab Version 21 software. The EC50 is the effective concentration that inhibits plaque formation by 50%. The HAdV types tested represent the most common adenovirus serotypes that cause ocular infections (HAdV8, HAdV19/64, HAdV37 (EKC); HAdV3, HAdV4, HAdV7a (follicular conjunctivitis)) and serotypes that cause conjunctivitis and can replicate in the rabbit ocular model (HAdV1, HAdV2, HAdV5).
(§2) For the in vitro antiviral testing, clinical adenovirus isolates of types HAdV1, HAdV2, HAdV3, HAdV4, HAdV5, HAdV7a, HAdV8, and HAdV19/64 were anonymously collected from patients presenting with typical adenoviral conjunctivitis at the Charles T. Campbell Ophthalmic Microbiology Laboratory at the UPMC Eye Center, University of Pittsburgh, Pittsburgh, PA, USA. The isolates were retrieved from a frozen −80 °C retrospective clinical collection that was de-identified and stored for diagnostic test validations. The types of isolates were determined using serum neutralization. Recently, HAdV19 has been reclassified as HAdV64 [41]; however, for the purpose of this study, it was designated as HAdV19/64. No clinical isolates of HAdV37 were identified, therefore the ATCC (American Type Culture Collection, Manassas, VA, USA) reference strain of HAdV37 was used. The clinical isolates along with the ATCC HAdV37 reference strain were grown in A549 cell (CCL-185, ATCC) monolayers and stocks were prepared, aliquoted, and frozen at –80 °C. The titers of the stock viruses were determined as described in Section 4.7. The same clinical isolate of HAdV5 used for the in vitro antiviral testing was also used for the in vivo antiviral evaluation in the Ad5/NZW rabbit ocular replication model.
(§3) A549 human lung carcinoma cells were grown and maintained in Eagle’s MEM supplemented with 10% fetal bovine serum (Sigma Cell Culture Reagents, St. Louis, MO, USA). The A549 cell line was used to prepare the adenovirus stocks and for the determination of viral titers in the Ad5/NZW rabbit ocular replication model and in the in vitro plaque reduction assays.
(§4) Plaque reduction assays were performed 2–4 times using 24-well multiplates containing A549 monolayers. One plate per virus isolate per drug was used. The 24-well multiplates were inoculated with approximately 100 plaque-forming units (PFU) of HAdV per well. After a three-hour adsorption period, the inocula were removed from all wells. […] The plates were dried, and the number of plaques per well was counted using a dissecting microscope. […] The mean and standard deviation EC50 concentrations of 2–4 trials were then determined for each HAdV isolate. […]

In another assay the test system is HAdV2. Description: plaque reduction assay in A549 cells, HAdV2. The following applies: Human adenovirus sp. The format is cell-based. As to the method: as §1, §2, §3, §4
In general terms: In a plaque reduction assay, fewer plaques than in the control indicate reduced infectivity or spread.

The next assay has as its system HAdV3. Description: plaque reduction assay in A549 cells, HAdV3. The format is cell-based. As to conditions: Human adenovirus sp. As to the method: as §1, §2, §3, §4
The test system of the next assay is HAdV4. Description: plaque reduction assay in A549 cells, HAdV4. The assay is classed as cell-based. As to conditions: Human adenovirus sp. As to the method: as §1, §2, §3, §4
A further assay relates to HAdV5. The experiment in a line: plaque reduction assay in A549 cells, HAdV5. The format is cell-based. As to conditions: Human adenovirus sp. As to the method:
as §1, §2, §3, §4

In the next assay the test system is HAdV7a. Description: plaque reduction assay in A549 cells, HAdV7a. The assay is classed as cell-based, Human adenovirus. As to the method:
as §1, §2, §3
Plaque reduction assays were performed 2–4 times using 24-well multiplates containing A549 monolayers. One plate per virus isolate per drug was used. The 24-well multiplates were inoculated with approximately 100 plaque-forming units (PFU) of HAdV per well. After a three-hour adsorption period, the inocula were removed from all wells. One ml of overlay media with 0.5% methylcellulose containing 100, 10, 1.0, 0.1, 0.01, or 0.001 μg/mL of CPE-C or cidofovir was added to 3 wells each. To the remaining 6 wells, 1 mL of overlay media with 0.5% methylcellulose and without CPE-C or cidofovir was added. The plates were incubated at 37 °C in 5% CO2 until plaque formation was visible. At that time, the cells were fixed and stained with 0.5% gentian violet containing formalin. The plates were dried, and the number of plaques per well was counted using a dissecting microscope. […] The mean and standard deviation EC50 concentrations of 2–4 trials were then determined for each HAdV isolate. […]

A further assay deals with HAdV8. Description: plaque reduction assay in A549 cells, HAdV8. The assay is classed as cell-based. As to conditions: Human adenovirus sp. As to the method: as §1, §2, §3, §4
The test system of the next assay is HAdV19/64. Description: plaque reduction assay in A549 cells, HAdV19/64. As to conditions: Human adenovirus sp. The format is cell-based. The procedure:
as §1, §2, §3, §4

A further assay deals with HAdV37. Description: plaque reduction assay in A549 cells, HAdV37. The following applies: Human adenovirus sp. The format is cell-based. As to the method:
as §1, §2, §3, §4

In assay [1] the test system is nine adenovirus types that commonly infect the eye. Description: plaque reduction assay, whole panel of ocular HAdV types. The format is cell-based, Human adenovirus. As to conditions: for range of mean EC50 concentrations across the HAdV serotypes tested: highest vs lowest mean EC50; for EC50: unidentified adenovirus. As to the method:
as §1, §2, §3
Plaque reduction assays were performed 2–4 times using 24-well multiplates containing A549 monolayers. One plate per virus isolate per drug was used. The 24-well multiplates were inoculated with approximately 100 plaque-forming units (PFU) of HAdV per well. After a three-hour adsorption period, the inocula were removed from all wells. One ml of overlay media with 0.5% methylcellulose containing 100, 10, 1.0, 0.1, 0.01, or 0.001 μg/mL of CPE-C or cidofovir was added to 3 wells each. To the remaining 6 wells, 1 mL of overlay media with 0.5% methylcellulose and without CPE-C or cidofovir was added. The plates were incubated at 37 °C in 5% CO2 until plaque formation was visible. At that time, the cells were fixed and stained with 0.5% gentian violet containing formalin. The plates were dried, and the number of plaques per well was counted using a dissecting microscope. The CPE-C and cidofovir EC50 concentrations (concentrations that inhibits plaque formation by 50%) for each virus isolate were determined using a Fitted Line Plot Regression analysis (Minitab Version 21, State College, PA) of the average number of plaques versus drug concentration. The mean and standard deviation EC50 concentrations of 2–4 trials were then determined for each HAdV isolate. The EC50 concentrations in μg/mL were then converted to μM using the GraphPad online Molarity Calculator (https://www.graphpad.com/quickcalcs/Molarityform.cfm (accessed on 12 June 2023)).

Setting [2] is: A549, HAdV1, converted from μg/mL.
The mark [3] stands for this setting: HAdV1 clinical isolate, A549 cells, mean ± SD of 2–4 trials.
The mark [4] stands for this setting: A549, HAdV2, converted from μg/mL.
[5] abbreviates: HAdV2 clinical isolate, A549 cells, mean ± SD of 2–4 trials.
The mark [6] stands for this setting: A549, HAdV3, converted from μg/mL.
Where [7] appears, read: HAdV3 clinical isolate, A549 cells, mean ± SD of 2–4 trials.
[8] abbreviates: A549, HAdV4, converted from μg/mL.
[9] abbreviates: HAdV4 clinical isolate, A549 cells, mean ± SD of 2–4 trials.
The mark [10] stands for this setting: A549, HAdV5, converted from μg/mL.
[11] abbreviates: HAdV5 clinical isolate, A549 cells, mean ± SD of 2–4 trials.
The mark [12] stands for this setting: Human adenovirus sp., A549, HAdV7a clinical isolate, A549 cells, mean ± SD of 2–4 trials.
[13] abbreviates: Human adenovirus sp., A549, HAdV7a, converted from μg/mL.
The mark [14] stands for this setting: A549, HAdV8, converted from μg/mL.
[15] abbreviates: HAdV8 clinical isolate, A549 cells, mean ± SD of 2–4 trials.
[16] abbreviates: A549, HAdV19/64, converted from μg/mL.
The mark [17] stands for this setting: HAdV19/64 clinical isolate, A549 cells, mean ± SD of 2–4 trials.
The mark [18] stands for this setting: A549, HAdV37, converted from μg/mL.
[19] abbreviates: HAdV37 ATCC reference strain, A549 cells, mean ± SD of 2–4 trials.

On to `Nc1ccn([C@@H]2C=C(CO)[C@@H](O)[C@H]2O)c(=O)n1` [CPE-C, Cyclopentenylcytosine], for which the EC50 is 214 ± 27 nM in the assay with HAdV1 (setting [2]); 0.051 ± 0.007 µg/mL with HAdV1 (setting [3]); 198 ± 101 nM with HAdV2 (setting [4]); 0.047 ± 0.024 µg/mL with HAdV2 (setting [5]); 165 ± 16 nM in the assay with HAdV3 (setting [6]); 0.04 ± 0.004 µg/mL in the assay with HAdV3 (setting [7]). Also, the EC50 turned out to be 134 ± 110 nM in the assay with HAdV4 (setting [8]); 0.032 ± 0.026 µg/mL in the assay with HAdV4 (setting [9]); 126 ± 138 nM with HAdV5 (setting [10]); 0.03 ± 0.033 µg/mL with HAdV5 (setting [11]); 0.055 ± 0.026 µg/mL with HAdV7a (setting [12]); 194 ± 57 nM in the assay with HAdV7a (setting [13]). Moreover, the EC50 in the assay with HAdV8 (setting [14]) amounted to 246 ± 76 nM; in the assay on HAdV8 (setting [15]), 0.059 ± 0.018 µg/mL; with HAdV19/64 (setting [16]), 196 ± 118 nM; with HAdV19/64 (setting [17]) it was 0.047 ± 0.028 µg/mL; in the assay with HAdV37 (setting [18]), 202 ± 37 nM; with HAdV37 (setting [19]), 0.048 ± 0.008 µg/mL. Also, the EC50 in [1] (read-out: EC50 concentrations across the panel of HAdV types, panel of HAdV types that commonly infect the eye) was under 250 nM; in assay [1] (read-out: EC50s across the panel of HAdV types, nine adenovirus types that commonly infect the eye), 0.03 to 0.059 µg/mL. For the same molecule, the “range of mean EC50 concentrations across the HAdV serotypes tested” value in [1] came out at 2 fold. For the same molecule, in assay [1] (majority of the HAdV types), the “EC50 concentrations lower for CPE-C compared to cidofovir” value is listed as “approximately 100 fold”. Also, the “EC50s across the panel of HAdV types” value in assay [1] (nine adenovirus types that commonly infect the eye) was under 0.06 µg/mL.

Regarding `Nc1ccn(C[C@@H](CO)OCP(=O)(O)O)c(=O)n1` [Cidofovir, cidofovir, reference compound], the EC50 is 18900 ± 2110 nM in the assay on HAdV1 (setting [2]); 5.27 ± 0.588 µg/mL in the assay on HAdV1 (setting [3]); 18300 ± 1470 nM with HAdV2 (setting [4]); 5.11 ± 0.41 µg/mL in the assay on HAdV2 (setting [5]); 14800 ± 3260 nM in the assay with HAdV3 (setting [6]); 4.12 ± 0.91 µg/mL in the assay on HAdV3 (setting [7]). Moreover, the EC50 with HAdV4 (setting [8]) is 16500 ± 3310 nM; with HAdV4 (setting [9]), 4.61 ± 0.925 µg/mL; with HAdV5 (setting [10]), 17600 ± 1740 nM; in the assay on HAdV5 (setting [11]), 4.92 ± 0.486 µg/mL; with HAdV7a (HAdV7a, converted from μg/mL), 19200 ± 491 nM; in the assay with HAdV7a (setting [12]) it was 5.37 ± 0.137 µg/mL. The EC50 came out at 19200 ± 491 nM with HAdV7a (setting [13]); 1560 ± 592 nM with HAdV8 (setting [14]); 0.427 ± 0.173 µg/mL with HAdV8 (setting [15]); 17500 ± 1850 nM with HAdV19/64 (setting [16]); 4.9 ± 0.517 µg/mL with HAdV19/64 (setting [17]); 17200 ± 2430 nM in the assay with HAdV37 (setting [18]). Further, the EC50 in the assay with HAdV37 (setting [19]) is 4.79 ± 0.678 µg/mL; in assay [1] (read-out: EC50 concentrations for a majority of the HAdV serotypes, majority of the HAdV serotypes), about 5 µg/mL. Further, the “range of mean EC50 concentrations across the HAdV serotypes tested” value in [1] was 12.6 fold.
